Reference: patent US6489297B1, “Vasoactive intestinal peptide analogs” (Dabur Research Foundation, priority 2000, dated 2002)
Where a SMILES comes first, the peptide text is derived from it. [ ]: non-standard residue; d: D form. dPhe(4-Cl) = N[C@H](Cc1ccc(Cl)cc1)C(=O)O; Dpg = CCCC(N)(CCC)C(=O)O; Aib = CC(C)(N)C(=O)O

Legend:
Assay type in all cases: cell-based, human
Details in all cases: 72 hours
HuTu80 (duodenum) = test: MTT cytotoxicity assay, HuTu80 cells
Description: (§1) The cytotoxic activity of synthesized peptides was tested on […] human tumor cell lines namely PA-1 (ovary), SW620 (colon) HuTu80 (duodenum), L132 (lung), U87MG (glioblastoma), KB (oral), MIAPaCa2(pancreas), A549(non small cell lung) and HT-29(colon). The tumor cells were collected at exponential growth phase and resuspended in medium (1.5×10^6 cells/ml in RPMI 1640 containing 10% FBS). 150 μl of medium was added to the wells of a 96-well tissue culture plate (Nunc, Denmark) followed by 30 μl of cell suspension. The plate was left in incubator (37° C., 5% CO2) overnight. 20 μl of the peptide (100 pM to 1 uM concentration) was added to marked wells of the 96-well plate. Each concentration was plated in triplicates. 20 μl of medium alone was added to control wells while wells without cells served as blanks. A total volume of 200 μl was ensured in each well and plate was left in incubator (37° C., 5% CO2). After 72 hours of incubation an MTT assay was performed and percentage cytotoxicity was calculated with respect to control cells. Following Tables show the maximum cytotoxicity achieved on various cell lines.

L132 (lung) = test: MTT cytotoxicity assay, L132 cells
Description: as §1

KB (oral) = test: MTT cytotoxicity assay, KB cells
Description: as §1

SW620 (colon) = test: MTT cytotoxicity assay, SW620 cells
Description: as §1

PA-1 (ovary) = test: MTT cytotoxicity assay, PA-1 cells
Description: as §1

U87MG (glioblastoma) = test: MTT cytotoxicity assay, U87MG cells
Description: as §1

## CCCC(CCC)(NC(=O)[C@H](CCC(N)=O)NC(=O)[C@H](CCCCN)NC(=O)[C@H](CCCNC(=N)N)NC(=O)[C@H](CC(C)C)NC(=O)[C@H](CCCNC(=N)N)NC(=O)[C@@H](NC(=O)[C@H](Cc1ccc(O)cc1)NC(=O)[C@H](CC(N)=O)NC(=O)[C@H](CC(=O)O)NC(=O)[C@@H](NC(=O)[C@@H](Cc1ccc(Cl)cc1)NC(=O)[C@@H](NC(=O)C(C)(C)NC(=O)[C@H](CC(=O)O)NC(=O)[C@H](CO)NC(=O)[C@@H](N)Cc1c[nH]cn1)C(C)C)[C@@H](C)O)[C@@H](C)O)C(=O)N[C@@H](C)C(=O)N[C@H](C(=O)N[C@@H](CCCCN)C(=O)N[C@@H](CCCCN)C(=O)N[C@@H](Cc1ccc(O)cc1)C(=O)N[C@@H](CC(C)C)C(=O)N[C@@H](CC(N)=O)C(=O)N[C@@H](CO)C(=O)N[C@H](C(=O)N[C@@H](CC(C)C)C(=O)N[C@@H](CC(N)=O)C(N)=O)[C@@H](C)CC)C(C)C [SEQ ID NO: 10, His-Ser-Asp-Aib-Val-4-Cl-D-Phe-Thr-Asp-Asn-Tyr-Thr-Arg-Leu-Arg-Lys-Gln-Dpg-Ala-Val-Lys-Lys-Tyr-Leu-Asn-Ser-Ile-Leu-Asn-NH2] (H-HSD[Aib]V[dPhe(4-Cl)]TDNYTRLRKQ[Dpg]AVKKYLNSILN-NH2)
HuTu80 (duodenum); HuTu80, 100 pM
  Percentage cytotoxicity: 15 ± 7.8%
HuTu80 (duodenum); HuTu80, 1 nM
  Percentage cytotoxicity: 31 ± 7.0%
HuTu80 (duodenum); HuTu80, 10 nM
  Percentage cytotoxicity: 28 ± 5.0%
HuTu80 (duodenum); HuTu80, 100 nM
  Percentage cytotoxicity: 28 ± 8.0%
HuTu80 (duodenum); HuTu80, 1 μM
  Percentage cytotoxicity: 16 ± 4.5%
L132 (lung); L132, 100 pM
  Percentage cytotoxicity: 15 ± 7.0%
L132 (lung); L132, 1 nM
  Percentage cytotoxicity: 28 ± 6.0%
L132 (lung); L132, 10 nM
  Percentage cytotoxicity: 31 ± 6.0%
L132 (lung); L132, 100 nM
  Percentage cytotoxicity: 29 ± 5.5%
L132 (lung); L132, 1 μM
  Percentage cytotoxicity: 17 ± 5.0%
KB (oral); 100 pM
  Percentage cytotoxicity: 12 ± 8.0%
KB (oral); 1 nM
  Percentage cytotoxicity: 32 ± 7.8%
KB (oral); 10 nM
  Percentage cytotoxicity: 26 ± 7.8%
KB (oral); 100 nM
  Percentage cytotoxicity: 27 ± 6.0%
KB (oral); 1 μM
  Percentage cytotoxicity: 30 ± 5.0%
SW620 (colon); SW620, 100 pM
  Percentage cytotoxicity: 17 ± 4.0%
SW620 (colon); SW620, 1 nM
  Percentage cytotoxicity: 30 ± 6.5%
SW620 (colon); SW620, 10 nM
  Percentage cytotoxicity: 29 ± 5.0%
SW620 (colon); SW620, 100 nM
  Percentage cytotoxicity: 24 ± 7.3%
SW620 (colon); SW620, 1 μM
  Percentage cytotoxicity: 16 ± 5.5%
PA-1 (ovary); PA1, 100 pM
  Percentage cytotoxicity: 28 ± 0.0%
PA-1 (ovary); PA1, 1 nM
  Percentage cytotoxicity: 31 ± 6.0%
PA-1 (ovary); PA1, 10 nM
  Percentage cytotoxicity: 26 ± 3.0%
PA-1 (ovary); PA1, 100 nM
  Percentage cytotoxicity: 25 ± 5.0%
PA-1 (ovary); PA1, 1 μM
  Percentage cytotoxicity: 23 ± 6.5%
U87MG (glioblastoma); 100 pM
  Percentage cytotoxicity: 12 ± 5.0%
U87MG (glioblastoma); 1 nM
  Percentage cytotoxicity: 16 ± 7.8%
U87MG (glioblastoma); 10 nM
  Percentage cytotoxicity: 30.1 ± 4.0%
U87MG (glioblastoma); 100 nM
  Percentage cytotoxicity: 29 ± 7.0%
U87MG (glioblastoma); 1 μM
  Percentage cytotoxicity: 29 ± 4.0%
